In patent publication US20060074073A1, “Therapeutic combinations comprising poly (ADP-ribose) polymerases inhibitor” (AGOURON PHARMACEUTICALS, INC., priority 2004, published 2006):
Values joined by “and” are separate entries in the source; they are usually repeats but may differ in a detail not shown here. Identical values can stand only once. Marks after values point to notes of the source that are not given here.

What was measured:
[1] = Plasma and tumor levels by HPLC/MS in mice bearing SW620 xenograft; format: in vivo
Experimental: In a parallel study plasma and tumor levels of the compound of formula 1 were measured by an HPLC/MS assay. In addition the degree of inhibition of tumor PARP catalytic activity was assessed using P^32-NAD incorporation into poly-ADP-ribose polymer in homogenates from SW620 tumors of treated animals. […] PARP catalytic activity was inhibited by 50% at 6 h and by 25% at 24 h.

LoVo xenografts [2] = experiment: In vivo antitumor efficacy with temozolomide, LoVo xenograft
From the text: (§1) In no combination study was antagonism observed.

[3] = test system: SW620 human colon carcinoma xenograft; experiment: In vivo antitumor efficacy with temozolomide, SW620 xenograft
LoVo xenografts [4] = experiment: In vivo antitumor efficacy with irinotecan, LoVo xenograft; set-up: species or system mice; conditions: once weekly × 3
From the text: as §1

PARP = experiment: Tumor PARP catalytic activity, 32P-NAD incorporation in SW620 tumor homogenates of treated animals; format: in vivo, mice
Experimental: Tumours were excised and were snap frozen in liquid nitrogen and stored at −80° C. until homogenised for analysis. The specimen was defrosted on ice and the wet weight documented. The tissue was homogenised using a Pro 2000 instrument (Pro Scientific Inc, Monroe, Conn., USA) in 3 volumes (i.e. 1 mg plus 3 μl isotonic buffer −7 mM Hepes, 26 mM KCl, 0.1 mM dextran, 0.4 mM EGTA, 0.5 mM MgCl2, 45 mM sucrose, pH 7.8), giving a homogenate with an overall dilution of 1 in 4. The homogenate was kept on ice throughout the process, and homogenisation was performed in 10 second bursts to prevent undue warming of the sample. Prior to assay the samples were further diluted with isotonic buffer where necessary to give a final dilution of 1 in 40 for [^32P]NAD incorporation assay or 1 in 1000 for immunoblot aaasy.
Briefly, cells were suspended in hypotonic buffer (9 mM HEPES pH 7.8, 4.5% (v/v) dextran, 4.5 mM MgCl2 and 5 mM DTT) at 1.5×10^7/ml on ice for 30 minutes then 9 vol of isotonic buffer (40 mM HEPES pH 7.8, 130 mM KCl, 4% (v/v) dextran, 2 mM EGTA, 2.3 mM MgCl2, 225 mM sucrose and 2.5 mM DTT) was added. The reaction was started by adding 300 μl cells to 100 μl 300 μM NAD^+ containing [^32P]-NAD^+ (Amersham, UK), and terminated by the addition of 2 ml ice cold 10% (w/v) TCA+10% (w/v) sodium pyrophosphate. After 30 min on ice the precipitated ^32P—labelled ADP-ribose polymers were filtered on Whatman GC/C filters (Whatman Intemational Ltd, Kent, UK), washed 5 times with 1% (v/v) TCA/1% (v/v) sodium pyrophosphate, dried and counted. PARP inhibitory IC50 values were calculated from computer-fitted curves (GraphPad Software, Inc., San Diego, Calif.).
Tumour homogenates were assayed in a similar manner; however, the homogenisation process introduces sufficient DNA damage to maximally stimulate PARP activity and oligonucleotide was not therefore required. Results were expressed in terms of pmol PAR former per mg tumour.
Preparation of Tumour/Tissue Samples • 1. The frozen tumour samples are weighed. • 2. 3 volumes (i.e. 3 μl solution added for each 1 mg tissue) of isotonic buffer plus DTT is added to the tumour sample. This is stored on ice until and during homogenisation. • 3. The sample is homogenised on ice within a Class II cabinet for 10-second bursts until no detectable macroscopic pieces of tissue are visible. • 4. Sufficient volume of the homogenate is diluted 1 in 10 with isotonic buffer plus DTT to provide an overall dilution of 1 in 40 from the original sample. A final volume of 3 ml is sufficient for triplicate sampling and a subsequent protein assay. • 5. The diluted homogenate is stored on ice and assayed within one hour as below.
PARP Assay of Tumour/Tissue Samples • 1. ^32P 600 μM NAD solution is prepared fresh on the day of experiment as detailed above. Oligonucleotide stock is removed from storage and defrosted. • 2. Water bath is warmed to 26° C. and set to agitate at 70 oscillations per minute.
3. Reaction test tubes are set up as per table A for the QC samples and as per table B for the homogenate.
• 4. Each QC sample is assayed in triplicate, with T0, +oligo and −oligo samples ×3. (Total of 9 tubes per sample, if low cell counts −oligo samples are omitted.) Homogenates are also assayed in triplicate, with T0 and reaction samples ×3. (Total 6 tubes per sample). • 5. 2 ml ice cold 10% TCA+10% NaPPi is added to the T0 tubes prior to addition of homogenate or cells, to correct for non-specific binding of radio-label to the filter. • 6. Reaction test tubes homogenates and QC cells are warmed in the water bath to 26° C. for 7 minutes. • 7. Each preparation is vortexed briefly and the reaction is started by adding 300 μl of this to each reaction tube. • 8. The reaction is stopped exactly 6 minutes after addition of homogenate by adding 2 ml of ice cold 10% TCA+10% NaPPi and vortexing. • 9. The tube is then incubated on ice for at least one hour prior to filtration. • 10. […]

CNCc1ccc(-c2[nH]c3cc(F)cc4c3c2CCNC4=O)cc1.O=C[C@H](O)[C@@H](O)[C@H](O)[C@H](O)C(=O)O [compound of formula 1 glucuronate salt]
Plasma compound of formula 1 ([1]; 0.1 mg/kg i.p. as glucuronate salt + temozolomide 68 mg/kg p.o., 0.5 h): 12.7 ± 2.3 ng/mL | Plasma compound of formula 1 ([1]; 0.1 mg/kg i.p. as glucuronate salt + temozolomide 68 mg/kg p.o., 6 h): 0.0 ± 0.0 ng/mL | Plasma compound of formula 1 ([1]; 0.1 mg/kg i.p. as glucuronate salt + temozolomide 68 mg/kg p.o., 24 h): 0.0 ± 0.0 ng/mL | Plasma compound of formula 1 ([1]; 1.0 mg/kg i.p. as glucuronate salt + temozolomide 68 mg/kg p.o., 0.5 h): 92.0 ± 28.0 ng/mL | Plasma compound of formula 1 ([1]; 1.0 mg/kg i.p. as glucuronate salt + temozolomide 68 mg/kg p.o., 6 h): 4.7 ± 4.0 ng/mL | Plasma compound of formula 1 ([1]; 1.0 mg/kg i.p. as glucuronate salt + temozolomide 68 mg/kg p.o., 24 h): 0.0 ± 0.0 ng/mL | Plasma compound of formula 1 ([1]; 10 mg/kg i.p. as glucuronate salt + temozolomide 68 mg/kg p.o., 0.5 h): 1532 + 134 ng/mL | Plasma compound of formula 1 ([1]; 10 mg/kg i.p. as glucuronate salt + temozolomide 68 mg/kg p.o., 6 h): 98.0 ± 28.0 ng/mL | Plasma compound of formula 1 ([1]; 10 mg/kg i.p. as glucuronate salt + temozolomide 68 mg/kg p.o., 24 h): 17.8 ± 29.5 ng/mL | body weight loss (LoVo xenografts [2]; LoVo experiment, any dose group): No body weight loss | Enhancement (%) (LoVo xenografts [2]; LoVo, temozolomide 68 mg/kg oral + 0.5 mg/kg i.p. (glucuronate salt), once daily for 5 days): 67% and 67^f % | Enhancement (%) ([3]; SW620, 0.1 mg/kg i.p. glucuronate salt + temozolomide 68 mg/kg p.o., QD×5): 28^g % | Enhancement (%) ([3]; SW620, 1.0 mg/kg i.p. glucuronate salt + temozolomide 68 mg/kg p.o., QD×5): ≧100^g % | body weight loss ([3]; SW620, temozolomide 68 mg/kg + 0.05 or 0.15 mg/kg glucuronate salt QD×5): No body weight loss | complete remission rate ([3]; SW620, temozolomide 68 mg/kg + 0.15 or 0.5 mg/kg glucuronate salt QD×5): 100% | Enhancement (%) ([3]; SW620, temozolomide 68 mg/kg oral + 0.05 mg/kg i.p. (glucuronate salt), once daily for 5 days): 35% | Enhancement (%) ([3]; SW620, temozolomide 68 mg/kg oral + 0.15 mg/kg i.p. (glucuronate salt), once daily for 5 days): 270^f % | Enhancement (%) ([3]; SW620, temozolomide 68 mg/kg oral + 0.5 mg/kg i.p. (glucuronate salt), once daily for 5 days): >60^f, g % | Enhancement (%) (LoVo xenografts [4]; irinotecan 25 mg/kg i.p. + 0.0 mg/kg i.p. (glucuronate salt)): 0% | Enhancement (%) (LoVo xenografts [4]; irinotecan 25 mg/kg i.p. + 0.15 mg/kg i.p. (glucuronate salt)): 71% | Enhancement (%) (LoVo xenografts [4]; irinotecan 25 mg/kg i.p. + 0.5 mg/kg i.p. (glucuronate salt)): 86^f % | PARP Activity (%) (PARP; 0.1 mg/kg i.p. glucuronate salt + temozolomide 68 mg/kg, 0.5 h): 77.6 ± 13.3% | PARP Activity (%) (PARP; 0.1 mg/kg i.p. glucuronate salt + temozolomide 68 mg/kg, 6 h): 90.2 ± 11.5% | PARP Activity (%) (PARP; 0.1 mg/kg i.p. glucuronate salt + temozolomide 68 mg/kg, 24 h): 100.4 ± 7.5% | PARP Activity (%) (PARP; 1.0 mg/kg i.p. glucuronate salt + temozolomide 68 mg/kg, 0.5 h): 24.9 ± 16.2% | PARP Activity (%) (PARP; 1.0 mg/kg i.p. glucuronate salt + temozolomide 68 mg/kg, 6 h): 68.6 ± 36.2% | PARP Activity (%) (PARP; 1.0 mg/kg i.p. glucuronate salt + temozolomide 68 mg/kg, 24 h): 70.2 ± 19.0% | PARP Activity (%) (PARP; 10 mg/kg i.p. glucuronate salt + temozolomide 68 mg/kg, 0.5 h): 3.4 ± 1.4% | PARP Activity (%) (PARP; 10 mg/kg i.p. glucuronate salt + temozolomide 68 mg/kg, 6 h): 4.8 ± 0.87% | PARP Activity (%) (PARP; 10 mg/kg i.p. glucuronate salt + temozolomide 68 mg/kg, 24 h): 18.3 ± 12.7%

CNCc1ccc(-c2[nH]c3cc(F)cc4c3c2CCNC4=O)cc1.O=P(O)(O)O [Compound I, phosphate salt of 8-fluoro-2-{4-[(methylamino)methyl]phenyl}-1,3,4,5-tetrahydro-6H-azepino[5,4,3-cd]indol-6-one]
single-agent antitumor effects ([3]; Compound I alone): no single-agent antitumor effects
